{
  "source": "paper PMC4448982",
  "about": "“LP-925219 maximizes urinary glucose excretion in mice by inhibiting both renal SGLT1 and SGLT2” (Pharmacology Research & Perspectives, 2015)",
  "type_in_all_cases": "cell-based",
  "conditions_in_all_cases": "mean ± SD",
  "key": {"[1]": {"target": "T1, mouse SGLT2 (Mus musculus, UniProt Q923I7)", "T1 construct": "expressed in transfected cells; host or cells: HEK293 (per abstract)", "T1 sequence (Q923I7 1-670)": "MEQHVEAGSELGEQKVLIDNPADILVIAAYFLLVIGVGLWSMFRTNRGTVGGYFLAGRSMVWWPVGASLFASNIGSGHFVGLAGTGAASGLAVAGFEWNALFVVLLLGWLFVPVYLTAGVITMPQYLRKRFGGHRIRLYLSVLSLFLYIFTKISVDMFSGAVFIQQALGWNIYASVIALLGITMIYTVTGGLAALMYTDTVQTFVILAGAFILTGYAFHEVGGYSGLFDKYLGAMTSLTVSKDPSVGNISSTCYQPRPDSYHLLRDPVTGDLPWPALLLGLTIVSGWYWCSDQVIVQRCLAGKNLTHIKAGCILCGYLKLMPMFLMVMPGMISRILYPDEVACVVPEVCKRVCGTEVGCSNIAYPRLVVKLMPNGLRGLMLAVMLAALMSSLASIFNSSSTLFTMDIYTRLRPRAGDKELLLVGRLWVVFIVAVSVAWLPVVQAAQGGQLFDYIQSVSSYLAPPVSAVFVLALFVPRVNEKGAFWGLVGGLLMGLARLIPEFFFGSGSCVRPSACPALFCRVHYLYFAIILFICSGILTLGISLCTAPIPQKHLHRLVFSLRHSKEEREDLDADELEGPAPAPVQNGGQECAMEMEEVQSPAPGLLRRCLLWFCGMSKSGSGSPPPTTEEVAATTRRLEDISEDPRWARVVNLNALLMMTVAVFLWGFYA", "assay": "14C-AMG uptake assay, HEK293 cells expressing mouse SGLT2", "source_text": "(§1) Methods for generating cell lines expressing mouse, rat, and dog SGLT1 and SGLT2 are published (Powell et al. [2013b], [2014]). Full-length coding sequence of human SGLT1 (NP_000334) and human SGLT2 (NP_003032.1) with an HA-tag at the N-terminus were cloned into the mammalian expression vector pIRESpuro2 (Clontech, Mountain View, CA). HEK293 cells (ATCC, Manassas, VA) were transfected with the pIRESpuro2 vector containing human SGLT1 or SGLT2 and bulk stable cell lines were selected in the presence of 0.5 μg/mL of puromycin.\n(§2) Cell lines expressing SGLT1 or SGLT2 were plated into poly-D-lysine-coated 384-well plates, and culture overnight in cell growth medium. Cells were washed, and then incubated in uptake buffer ([…], […] KCl, […] CaCl2, […] MgCl2, […] HEPES/Tris, 1 mg/mL of bovine serum albumin, pH7.4) containing [^14C]α-methylglucopyranoside (^14C-AMG), a nonmetabolizable glucose analog specific for sodium-dependent glucose transporters (Wright and Turk [2004]). The inhibition of SGLT1 or SGLT2 was determined by measuring SGLT1/2-mediated ^14C-AMG uptake in the presence of increasing compound concentrations of LP-925219. […] Standard sigmoidal dose–response model curves were fitted, and the IC50 value was computed as the LP-925219 concentration that inhibited the ^14C-AMG uptake by 50% between baseline and maximum uptake."}, "[2]": {"target": "T2, human SGLT1 (Homo sapiens, UniProt P13866)", "T2 sequence (P13866 1-664)": "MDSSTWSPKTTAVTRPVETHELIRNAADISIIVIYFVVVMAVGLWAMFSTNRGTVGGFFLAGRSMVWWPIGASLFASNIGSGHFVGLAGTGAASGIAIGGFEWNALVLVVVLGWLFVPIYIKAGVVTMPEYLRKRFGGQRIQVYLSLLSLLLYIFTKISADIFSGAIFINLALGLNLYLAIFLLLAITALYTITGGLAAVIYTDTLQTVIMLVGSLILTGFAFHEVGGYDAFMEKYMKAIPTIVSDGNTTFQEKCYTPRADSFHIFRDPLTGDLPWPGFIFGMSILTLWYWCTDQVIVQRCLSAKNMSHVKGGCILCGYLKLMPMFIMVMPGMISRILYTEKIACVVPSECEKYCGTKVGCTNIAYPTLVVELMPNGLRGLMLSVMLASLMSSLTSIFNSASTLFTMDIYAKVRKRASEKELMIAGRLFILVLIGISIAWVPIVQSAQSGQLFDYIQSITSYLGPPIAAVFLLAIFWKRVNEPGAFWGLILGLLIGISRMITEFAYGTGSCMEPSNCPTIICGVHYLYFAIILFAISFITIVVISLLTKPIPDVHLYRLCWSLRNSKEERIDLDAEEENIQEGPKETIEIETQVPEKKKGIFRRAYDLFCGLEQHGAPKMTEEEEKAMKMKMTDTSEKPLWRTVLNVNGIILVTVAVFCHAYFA", "assay": "14C-AMG uptake assay, HEK293 cells expressing human SGLT1", "parameters": "expressed in transfected cells", "source_text": "as §1, §2"}, "[3]": {"target": "T3, rat SGLT1 (Rattus norvegicus, UniProt P53790)", "T3 construct": "expressed in transfected cells; host or cells: HEK293 (per abstract)", "T3 sequence (P53790 1-665)": "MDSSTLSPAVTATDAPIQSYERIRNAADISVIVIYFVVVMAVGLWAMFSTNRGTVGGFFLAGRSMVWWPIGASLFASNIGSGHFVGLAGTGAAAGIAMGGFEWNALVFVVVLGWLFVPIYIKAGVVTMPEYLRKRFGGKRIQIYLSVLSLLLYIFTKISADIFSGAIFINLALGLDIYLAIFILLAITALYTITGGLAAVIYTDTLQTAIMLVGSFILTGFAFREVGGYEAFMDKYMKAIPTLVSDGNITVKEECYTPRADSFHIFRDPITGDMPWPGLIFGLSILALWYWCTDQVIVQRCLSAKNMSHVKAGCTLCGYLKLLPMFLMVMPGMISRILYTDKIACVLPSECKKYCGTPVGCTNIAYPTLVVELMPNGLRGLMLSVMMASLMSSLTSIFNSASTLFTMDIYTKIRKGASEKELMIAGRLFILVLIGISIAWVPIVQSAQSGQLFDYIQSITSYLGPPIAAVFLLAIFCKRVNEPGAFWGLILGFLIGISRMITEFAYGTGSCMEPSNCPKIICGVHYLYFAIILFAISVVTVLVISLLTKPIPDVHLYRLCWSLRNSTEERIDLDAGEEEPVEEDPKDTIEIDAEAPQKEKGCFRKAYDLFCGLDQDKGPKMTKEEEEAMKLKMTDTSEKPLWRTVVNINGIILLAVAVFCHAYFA", "assay": "14C-AMG uptake assay, cells expressing rat SGLT1", "source_text": "as §1, §2"}, "[4]": {"target": "dog SGLT2 (Canis lupus familiaris, UniProt Q5U9C9)", "sequence (Q5U9C9 entry or part of it)": "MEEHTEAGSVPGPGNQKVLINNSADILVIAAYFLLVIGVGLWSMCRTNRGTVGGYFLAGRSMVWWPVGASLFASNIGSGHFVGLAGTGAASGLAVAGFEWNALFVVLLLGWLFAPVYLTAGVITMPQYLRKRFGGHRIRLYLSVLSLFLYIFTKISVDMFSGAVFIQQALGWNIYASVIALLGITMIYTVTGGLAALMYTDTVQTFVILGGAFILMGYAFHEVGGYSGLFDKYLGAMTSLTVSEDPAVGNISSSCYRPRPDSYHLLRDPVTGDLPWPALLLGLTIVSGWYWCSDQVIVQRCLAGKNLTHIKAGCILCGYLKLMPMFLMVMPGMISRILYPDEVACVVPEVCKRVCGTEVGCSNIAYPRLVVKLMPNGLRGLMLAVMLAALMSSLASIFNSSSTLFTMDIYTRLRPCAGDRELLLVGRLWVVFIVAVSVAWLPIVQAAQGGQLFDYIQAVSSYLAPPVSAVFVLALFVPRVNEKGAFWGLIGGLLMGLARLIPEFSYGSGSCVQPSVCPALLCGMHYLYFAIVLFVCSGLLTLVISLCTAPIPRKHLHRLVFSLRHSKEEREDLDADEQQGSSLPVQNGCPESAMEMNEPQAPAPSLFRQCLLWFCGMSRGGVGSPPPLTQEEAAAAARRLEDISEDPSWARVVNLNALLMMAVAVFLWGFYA", "assay": "14C-AMG uptake assay, cells expressing dog SGLT2", "source_text": "as §1, §2"}},
  "data": [
    {"smiles": "COc1ccc(Cc2cc([C@@H]3O[C@H](SC)[C@@H](O)[C@H](O)[C@H]3O)ccc2Cl)cc1", "note": "[LP-925219]", "values": [
      {"measurement": "IC50", "setting": "[1]", "value": "0.5 ± 0.1", "unit": "nM"},
      {"measurement": "IC50", "setting": "[2]", "value": "15.9 ± 4.2", "unit": "nM"},
      {"measurement": "IC50", "setting": "[3]", "value": "36.7 ± 7.2", "unit": "nM"},
      {"measurement": "IC50", "setting": "[4]", "value": "1 ± 0.3", "unit": "nM"}
    ]}
  ]
}
